# Experimental data published in US10449181B2, “Treatment of autism and autism spectrum disorders (ASD)” (priority 2016, dated 2019).
# Entries after “also recorded” stand apart in the source; their conditions may differ.
# How the values were obtained:
# [1] = test system: subject with Autism Spectrum Disorder; assay: Oral zolpidem dosing regimen in a subject with ASD; type: in vivo, human
# Excerpt: Thus, classic BZs and zolpidem are likely to have different requirements for high-affinity binding to GABAA receptors (Sancar et al. 2007). […] Studies have shown that the sedative-hypnotic and anticonvulsant activities of zolpidem are due to its action on α1-GABAA receptors and not on α2- or α3-GABAA receptors (Crestani F et al., 2000).
# Especially, the relief of the so-called “psychic pain” or “phantom pain” which was by far the most debilitating symptom of ASD with respect to the subject, was profound after the first dose.
# α1-GABAA receptors = α1-GABAA receptors (Homo sapiens, UniProt P14867+P18507); conditions: recombinant receptors; cited from earlier work
# Sequence of α1-GABAA receptors (P18507 40-475, one chain of several): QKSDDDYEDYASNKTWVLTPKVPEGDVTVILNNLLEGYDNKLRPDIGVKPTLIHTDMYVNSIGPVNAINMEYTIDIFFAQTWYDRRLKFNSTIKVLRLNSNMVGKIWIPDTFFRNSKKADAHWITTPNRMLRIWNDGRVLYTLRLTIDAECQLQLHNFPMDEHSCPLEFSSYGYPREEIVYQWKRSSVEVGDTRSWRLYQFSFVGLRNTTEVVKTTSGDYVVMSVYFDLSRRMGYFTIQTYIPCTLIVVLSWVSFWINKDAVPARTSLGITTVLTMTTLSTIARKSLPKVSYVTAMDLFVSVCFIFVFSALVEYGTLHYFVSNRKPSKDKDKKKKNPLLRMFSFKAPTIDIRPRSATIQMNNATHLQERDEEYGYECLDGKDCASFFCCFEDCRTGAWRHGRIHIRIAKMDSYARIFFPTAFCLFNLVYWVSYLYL
# α2-GABAA receptors = α2-GABAA receptors (Homo sapiens, UniProt P18507+P47869); conditions: recombinant receptors; cited from earlier work
# Sequence of α2-GABAA receptors (P47869 29-451, one chain of several): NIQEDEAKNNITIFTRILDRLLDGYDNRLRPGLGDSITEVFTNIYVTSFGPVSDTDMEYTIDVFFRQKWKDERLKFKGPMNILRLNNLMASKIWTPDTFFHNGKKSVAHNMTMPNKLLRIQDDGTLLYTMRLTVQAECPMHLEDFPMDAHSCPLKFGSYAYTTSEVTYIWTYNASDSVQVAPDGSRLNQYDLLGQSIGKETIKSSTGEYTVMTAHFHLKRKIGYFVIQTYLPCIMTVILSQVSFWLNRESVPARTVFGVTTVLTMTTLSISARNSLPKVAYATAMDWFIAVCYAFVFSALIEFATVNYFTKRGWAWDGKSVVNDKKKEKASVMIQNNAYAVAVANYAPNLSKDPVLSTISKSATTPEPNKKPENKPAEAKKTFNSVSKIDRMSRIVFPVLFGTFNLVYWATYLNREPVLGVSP
# Sequence of α2-GABAA receptors (P18507 40-475, one chain of several): as the sequence (P18507 40-475, one chain of several) above
# α3-GABAA receptors = α3-GABAA receptors (Homo sapiens, UniProt P18507+P34903); conditions: recombinant receptors; cited from earlier work
# Sequence of α3-GABAA receptors (P34903 29-492, one chain of several): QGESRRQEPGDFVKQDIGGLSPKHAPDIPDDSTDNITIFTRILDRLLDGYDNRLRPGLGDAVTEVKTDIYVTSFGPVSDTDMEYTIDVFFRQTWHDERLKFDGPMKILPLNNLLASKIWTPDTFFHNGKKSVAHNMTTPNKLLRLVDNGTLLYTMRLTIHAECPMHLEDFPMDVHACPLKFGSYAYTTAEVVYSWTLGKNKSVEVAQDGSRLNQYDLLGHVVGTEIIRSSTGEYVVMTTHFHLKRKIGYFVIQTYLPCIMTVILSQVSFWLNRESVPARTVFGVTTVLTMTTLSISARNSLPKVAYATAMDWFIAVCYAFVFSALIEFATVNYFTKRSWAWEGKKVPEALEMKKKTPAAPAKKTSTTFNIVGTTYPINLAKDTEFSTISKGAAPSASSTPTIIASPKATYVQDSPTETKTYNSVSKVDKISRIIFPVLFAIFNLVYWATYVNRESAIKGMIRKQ
# Sequence of α3-GABAA receptors (P18507 40-475, one chain of several): as the sequence (P18507 40-475, one chain of several) above
# α5-GABAA receptors = target: T1, α5-GABAA receptors (Homo sapiens, UniProt P31644); conditions: recombinant receptors; cited from earlier work
# T1 sequence (P31644 32-462): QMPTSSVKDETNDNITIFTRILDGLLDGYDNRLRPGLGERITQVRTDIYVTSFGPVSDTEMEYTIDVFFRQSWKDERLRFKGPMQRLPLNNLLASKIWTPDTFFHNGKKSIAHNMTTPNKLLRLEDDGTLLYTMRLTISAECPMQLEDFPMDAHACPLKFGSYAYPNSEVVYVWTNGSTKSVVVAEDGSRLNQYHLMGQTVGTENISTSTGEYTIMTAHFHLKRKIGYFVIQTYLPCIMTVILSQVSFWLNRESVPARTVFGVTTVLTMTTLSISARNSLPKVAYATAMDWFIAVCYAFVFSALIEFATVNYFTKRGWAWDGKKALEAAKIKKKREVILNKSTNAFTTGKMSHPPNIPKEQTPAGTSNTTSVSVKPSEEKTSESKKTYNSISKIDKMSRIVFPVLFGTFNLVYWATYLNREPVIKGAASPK
# α1β3 GABAA receptors = target: T2, α1β3 GABAA receptors (Homo sapiens, UniProt P14867); conditions: cited from earlier work
# T2 sequence (P14867 28-456): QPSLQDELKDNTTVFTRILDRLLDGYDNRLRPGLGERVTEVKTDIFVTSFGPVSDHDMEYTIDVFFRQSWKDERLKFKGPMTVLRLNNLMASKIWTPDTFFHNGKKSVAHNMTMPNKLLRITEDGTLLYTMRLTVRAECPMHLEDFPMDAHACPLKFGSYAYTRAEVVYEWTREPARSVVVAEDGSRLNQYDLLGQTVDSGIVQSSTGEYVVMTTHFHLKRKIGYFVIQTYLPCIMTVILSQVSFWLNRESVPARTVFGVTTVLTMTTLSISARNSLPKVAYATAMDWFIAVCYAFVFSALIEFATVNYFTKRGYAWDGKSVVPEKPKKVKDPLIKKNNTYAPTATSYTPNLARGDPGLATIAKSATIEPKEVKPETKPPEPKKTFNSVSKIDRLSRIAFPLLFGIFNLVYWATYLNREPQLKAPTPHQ
# T2 sequence (P28472 26-473 partner): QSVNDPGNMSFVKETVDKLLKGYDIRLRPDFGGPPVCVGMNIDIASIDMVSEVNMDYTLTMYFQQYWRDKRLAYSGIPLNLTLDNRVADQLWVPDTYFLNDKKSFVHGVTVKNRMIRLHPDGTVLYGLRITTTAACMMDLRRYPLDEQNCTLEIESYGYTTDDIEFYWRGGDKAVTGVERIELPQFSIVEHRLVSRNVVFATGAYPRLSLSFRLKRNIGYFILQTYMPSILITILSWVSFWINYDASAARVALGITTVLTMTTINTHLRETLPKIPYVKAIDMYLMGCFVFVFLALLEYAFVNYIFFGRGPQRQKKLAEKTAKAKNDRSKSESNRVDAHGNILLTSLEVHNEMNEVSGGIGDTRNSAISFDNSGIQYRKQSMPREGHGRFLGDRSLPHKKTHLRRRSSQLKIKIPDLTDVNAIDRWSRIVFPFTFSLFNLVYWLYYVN
# autistic children = conditions: eight week trial, 25 autistic children, unpublished data, not placebo-controlled; cited from earlier work
Structure (SMILES),"relief of the so-called psychic pain or phantom pain ([1]; after the first dose, one subject)","attenuation of at least one indicium of an ASD ([1]; oral, at least 30 mg every 3.5 hours around the clock, at least one subject)","duration of symptom-free state while on zolpidem ([1]; oral, at least 30 mg every 3.5 hours around the clock, one subject)",affinity to α1-GABAA receptors (α1-GABAA receptors),affinity to α2-GABAA receptors (α2-GABAA receptors),affinity to α3-GABAA receptors (α3-GABAA receptors),binding to α5-GABAA receptors (α5-GABAA receptors),modulation of α1β3 GABAA receptors (α1β3 GABAA receptors),measures of irritability and communications (autistic children)
Cc1ccc(-c2nc3ccc(C)cn3c2CC(=O)N(C)C)cc1 [zolpidem],profound,almost complete attenuation; also recorded: immediate and almost complete,symptom-free and leading a normal life for at least five years,high affinity,intermediate affinity,intermediate affinity,fails to bind,potent stoichiometry-selective modulator,
NC[C@H](CC(=O)O)c1ccc(Cl)cc1 [Arbaclofen],,,,,,,,,significant improvements
